According to patent US20060052387A1, “Organic compounds” (priority 2002, published 2006):
Read-outs that look alike come from different tables or passages of the source.

Legend:
Akt = conditions: SALT I 1 or 5 NM (so in the source); M-CSF 100 ng/mL for three minutes
Experimental: Akt1 also called protein kinase B is a serine/threonine kinase involved in a signaling pathway activated by the Bcr-Ab1 activity. Phosphorylated Akt1 phosphorylates cellular proteins and promotes cell proliferation and cell survival.
In vitro Akt kinase assays were performed as described in Kelley et al., supra. Briefly, monocytes were incubated overnight with M-CSF (20 ng/mL), serum-starved for 1.5 hours. […] Akt protein was immunoprecipitated from the cell lysate. The blot was probed with anti-phospho-threonine-Akt, stripped and re-probed for total Akt.

[1] = test system: Caspase-3 activity in M-CSF-stimulated human monocytes; conditions: M-CSF 20 ng/mL + DMSO, 18 hours
From the text: Caspase-3 is a cysteine aspartate protease involved in the cascade leading to DNA fragmentation. Caspase-3 cleaves one subunit of a dimer called DNA fragmentation factor (DFF) at a tetrapeptide sequence DEVD, the other subunit then activates a nuclease that degrades DNA. […] Caspase-3 activity is defined as the amount of free amino trifluoromethylcoumarin (AFC) released from the caspase-3 selective fluorosubstrate DEVD-AFC measured by fluorometry. In the following table, caspase activity is given in pmol/min/mg.

[2] = test system: M-CSF-stimulated human monocytes; conditions: for numbers of viable cells after the incubation period / numbers of viable cells after the incubation period, Mean: M-CSF 20 ng/mL + DMSO, 24 hours; for numbers of viable cells after the incubation period, Mean: Mean of 3 experiments

CS(=O)(=O)O.Cc1ccc(NC(=O)c2ccc(CN3CCN(C)CC3)cc2)cc1Nc1nccc(-c2cccnc2)n1 [SALT I]
Akt phosphorylation (in words) (Akt): Decreases | caspase activity ([1]; Donor 1, SALT I 0.1 pM (so in the source)): 156 pmol/min/mg | caspase activity ([1]; Donor 1, SALT I 1 pM (so in the source)): 356 pmol/min/mg | caspase activity ([1]; Donor 1, SALT I 5 pM (so in the source)): 573 pmol/min/mg | caspase activity ([1]; Donor 1, SALT I 10 pM (so in the source)): 629 pmol/min/mg | caspase activity ([1]; Donor 2, SALT I 0.1 pM (so in the source)): 220 pmol/min/mg | caspase activity ([1]; Donor 2, SALT I 1 pM (so in the source)): 299 pmol/min/mg | caspase activity ([1]; Donor 2, SALT I 5 pM (so in the source)): 329 pmol/min/mg | caspase activity ([1]; Donor 2, SALT I 10 pM (so in the source)): 407 pmol/min/mg | numbers of viable cells after the incubation period ([2]; Experiment 1, SALT I 1 pM (so in the source)): 130 | numbers of viable cells after the incubation period ([2]; Experiment 1, SALT I 5 pM (so in the source)): 156 | numbers of viable cells after the incubation period ([2]; Experiment 1, SALT I 10 pM (so in the source)): 138 | numbers of viable cells after the incubation period ([2]; Experiment 1, SALT I 50 pM (so in the source)): 46 | numbers of viable cells after the incubation period ([2]; Experiment 1, SALT I 100 pM (so in the source)): 15 | numbers of viable cells after the incubation period ([2]; Experiment 2, SALT I 1 pM (so in the source)): 79 | numbers of viable cells after the incubation period ([2]; Experiment 2, SALT I 5 pM (so in the source)): 47 | numbers of viable cells after the incubation period ([2]; Experiment 2, SALT I 10 pM (so in the source)): 46 | numbers of viable cells after the incubation period ([2]; Experiment 2, SALT I 50 pM (so in the source)): 7 | numbers of viable cells after the incubation period ([2]; Experiment 2, SALT I 100 pM (so in the source)): 11 | numbers of viable cells after the incubation period ([2]; Experiment 3, SALT I 1 pM (so in the source)): 143 | numbers of viable cells after the incubation period ([2]; Experiment 3, SALT I 5 pM (so in the source)): 75 | numbers of viable cells after the incubation period ([2]; Experiment 3, SALT I 10 pM (so in the source)): 58 | numbers of viable cells after the incubation period ([2]; Experiment 3, SALT I 50 pM (so in the source)): 36 | numbers of viable cells after the incubation period ([2]; Experiment 3, SALT I 100 pM (so in the source)): 16 | number of monocytes surviving at 18 hours (in words) ([2]; M-CSF stimulated monocytes, 18 hours): reduces | numbers of viable cells after the incubation period, Mean ([2]; SALT I 1 pM (so in the source)): 117 | numbers of viable cells after the incubation period, Mean ([2]; SALT I 5 pM (so in the source)): 93 | numbers of viable cells after the incubation period, Mean ([2]; SALT I 10 pM (so in the source)): 81 | numbers of viable cells after the incubation period, Mean ([2]; SALT I 50 pM (so in the source)): 30 | numbers of viable cells after the incubation period, Mean ([2]; SALT I 100 pM (so in the source)): 14
